# Measured values taken from patent US9801850B2, “Antibacterial agent” (OSAKA UNIVERSITY, priority 2009, dated 2017).
# Experiments:
# Type in all cases: cell-based, Staphylococcus aureus
# MSSA ATCC25923 [1] = assay: Membrane damaging properties, SYTOX Green fluorescence (Example 4); conditions: for fluorescence intensity ratio of SYTOX Green (control PBS = 1): 37° C., 15 minutes, EGCG derivative 4-32, EGCG 8-128, NISIN 1-8 μg/ml, FIG. 3
# Method: As an antibacterial agent, the EGCG-C16 prepared in Example 1 was used in Example 4; EGCG was used in Comparative Example 4; and membrane-damaging peptide NISIN (MP Biomedicals) was used in a reference example. Antibacterial agent solutions of EGCG-C16 and EGCG were prepared by dissolving them in DMSO so as to achieve top concentrations, respectively. An antibacterial agent solution of the other antibacterial agent was prepared by dissolving it in PBS and diluted with PBS as appropriate. The influence of DMSO used for dissolving the antibacterial agents also was considered.
# MSSA ATCC25923 and MRSA ATCC43300 were subjected to shaking culture in MH-broths (Difco) until they reached a late stage in the exponential growth phase. The thus-obtained culture solutions were each centrifuged at 7000 rpm for 10 minutes, and bacterial cells that had settled were suspended in PBS. The suspension of the bacterial cells was added to wells of a 384 black plate, and each of the antibacterial agent solutions was further added thereto and mixed. The resultant mixture was incubated at 37° C. for 15 minutes. Subsequently, a dead cell-staining dye (trade name “SYTOX Green”, LONZA) was mixed in each well so that the concentration thereof became 10 μmol/l, and the resultant mixture was incubated at 37° C. for 10 minutes. […] On the other hand, as a control, the fluorescence intensity was measured in the same manner, except that PBS or 10% DMSO was added instead of the antibacterial agent solutions. Then, regarding each of the MSSA and MRSA, the ratio of the fluorescence intensity when each of the agents was added was calculated assuming that the fluorescence intensity obtained in the control (PBS) was 1.
# MRSA ATCC43300 [2] = assay: Checker-board method, combination with β-lactam agent (Example 6); set-up: key to minimum EGCG-C16 concentration inhibiting growth alone: *MIC: The minimum EGCG-C16 concentration when the growth of the bacteria was inhibited using EGCG-C16 alone under a β-lactam agent free condition
# Method: (§1) EGCG-C16 was dissolved in 100% DMSO, and each of the above-described β-lactam agents was dissolved in sterile distilled water. Thereafter, they were diluted with sterile distilled water so as to achieve predetermined concentrations, and the respective agents at the respective concentrations were combined one another. The change in MIC of each β-lactam agent by the addition of EGCG-C16 was measured by the checker-board method. […] The minimum inhibitory concentration (MIC) of each of the above-described β-lactam agents when used in combination with EGCG-C16 was measured in the same manner as described in Section (2) of Example 2, except that the MRSA ATCC43300 and the MRSA clinical isolate No. 8 used in Example 2 were used as the bacteria.
# (§2) As Comparative Example 6, the minimum inhibitory concentration (MIC) was measured in the same manner as in Example 6, except that EGCG was used instead of EGCG-C16.
# [3] = system: MRSA clinical isolate No. 8; assay: as above; set-up: key to minimum EGCG-C16 concentration inhibiting growth alone: *MIC: The minimum EGCG-C16 concentration when the growth of the bacteria was inhibited using EGCG-C16 alone under a β-lactam agent free condition
# Method: as §1, §2
# MRSA ATCC43300 [4] = assay: MIC with addition of PG, LPS or D-Ala-D-Ala (Example 3); conditions: MRSA (ATCC43300)
# Method: (§3) Regarding EGCG-C16, whether or not the antibacterial action thereof against MSSA and MRSA is inhibited by the addition of: peptidoglycan (PG) or D-Ala-D-Ala, which are each a cell wall component; or lipopolysaccharide (LPS), which is an outer membrane component, was examined. The MIC measurement was carried out in the manner described in Section (2) of Example 2.
# (§4) In Example 3, EGCG-C16 prepared in Example 1 was used as an antibacterial agent. In Comparative Example 3, unsubstituted EGCG was used as an antibacterial agent. […] Antibacterial agent solutions of EGCG-C16 and EGCG were prepared in the same manner as described in Section (2) of Example 1. Antibacterial agent solutions of the antibacterial agents other than EGCG-C16 and EGCG were prepared by dissolving them in PBS.
# (§5) As additives, PG (Peptidoglycan Staphylococcus aureus, SIGMA-ALDRICH), D-Ala-D-Ala (SIGMA-ALDRICH), and LPS (Lipopolysaccharide Salmonella, SIGMA-ALDRICH) were provided. Each of the additives was dissolved in PBS, and the resultant solution was used as an additive solution.
# (§6) Dilution series of the antibacterial agent solutions were prepared. Each of them was dispensed to a 96-well plate. Further, the additive solution was added thereto and mixed. After that, a bacterial culture solution of MRSA ATCC43300 or MSSA ATCC25923 was added thereto and cultured at 37° C. for 18 hours. In the mixture of the antibacterial agent solution, the additive solution, and the bacterial culture solution, the final concentrations of PG, D-Ala-D-Ala, and LPS were each set to 30 μg/ml. Unless otherwise stated, the minimum inhibitory concentration (MIC) was calculated in the same manner as described in Section (2) of Example 2.
# MSSA ATCC25923 [5] = assay: as above; conditions: MSSA (ATCC25923)
# Method: as §3, §4, §5, §6
# [6] = MRSA ATCC43300, concentration of EGCG-C16 or EGCG 0 μg/ml
# [7] = MRSA ATCC43300, concentration of EGCG-C16 or EGCG 2 μg/ml
# [8] = MRSA ATCC43300, concentration of EGCG-C16 or EGCG 4 μg/ml
# [9] = MRSA ATCC43300, concentration of EGCG-C16 or EGCG 8 μg/ml
# [10] = concentration of EGCG-C16 or EGCG 0 μg/ml
# [11] = concentration of EGCG-C16 or EGCG 8 μg/ml
# [12] = +D-Ala-D-Ala (30 μg/mL), lower part of Table 9
# [13] = +LPS (30 μg/mL), upper part of Table 9
# [14] = +PG (30 μg/mL), lower part of Table 9 (PG/D-Ala-D-Ala series)
# [15] = +PG (30 μg/mL), upper part of Table 9 (PG/LPS series)
# [16] = MH-broth free of additives, lower part of Table 9 (PG/D-Ala-D-Ala series)
# [17] = MH-broth free of additives, upper part of Table 9 (PG/LPS series)
# [18] = MRSA ATCC43300, concentration of EGCG-C16 or EGCG 16 μg/ml
# [19] = MRSA ATCC43300, concentration of EGCG-C16 or EGCG 32 μg/ml
# [20] = MRSA ATCC43300, concentration of EGCG-C16 or EGCG 64 μg/ml
# [21] = MRSA ATCC43300, concentration of EGCG-C16 or EGCG 128 μg/ml
molecule,measurement,setting,value
EGCG-palmitate [EGCG-C16],fluorescence intensity ratio of SYTOX Green (control PBS = 1),MSSA ATCC25923 [1],very high fluorescence intensity ratio
same,cell membrane-damaging action at high concentration (SYTOX Green),MSSA ATCC25923 [1]; EGCG-C16 at 64 μg/ml,tendency for this action of EGCG-C16 to become weak
same,MIC of ABPC when used in combination with EGCG-C16 or EGCG,MRSA ATCC43300 [2]; [6],32 µg/mL
same,MIC of IPM when used in combination with EGCG-C16 or EGCG,MRSA ATCC43300 [2]; [6],0.016 µg/mL
same,MIC of ABPC when used in combination with EGCG-C16 or EGCG,MRSA ATCC43300 [2]; [7],16 µg/mL
same,MIC of IPM when used in combination with EGCG-C16 or EGCG,MRSA ATCC43300 [2]; [7],0.016 µg/mL
same,MIC of ABPC when used in combination with EGCG-C16 or EGCG,MRSA ATCC43300 [2]; [8],8 µg/mL
same,MIC of IPM when used in combination with EGCG-C16 or EGCG,MRSA ATCC43300 [2]; [8],0.016 µg/mL
same,MIC of ABPC when used in combination with EGCG-C16 or EGCG,MRSA ATCC43300 [2]; [9],1 µg/mL
same,MIC of IPM when used in combination with EGCG-C16 or EGCG,MRSA ATCC43300 [2]; [9],0.004 µg/mL
same,minimum EGCG-C16 concentration inhibiting growth alone,"MRSA ATCC43300 [2]; MRSA ATCC43300, β-lactam agent free, mark stands in the column 16 μg/ml",*MIC
same,MIC of ABPC when used in combination with EGCG-C16 or EGCG,[3]; [10],64 µg/mL
same,MIC of ABPC when used in combination with EGCG-C16 or EGCG,[3]; concentration of EGCG-C16 or EGCG 2 μg/ml,32 µg/mL
same,MIC of ABPC when used in combination with EGCG-C16 or EGCG,[3]; concentration of EGCG-C16 or EGCG 4 μg/ml,16 µg/mL
same,MIC of ABPC when used in combination with EGCG-C16 or EGCG,[3]; [11],2 µg/mL
same,minimum EGCG-C16 concentration inhibiting growth alone,"[3]; β-lactam agent free, mark stands in the column 16 μg/ml",*MIC
same,MIC,MRSA ATCC43300 [4]; [12],8 µg/mL
same,MIC,MRSA ATCC43300 [4]; [13],16 µg/mL
same,MIC,MRSA ATCC43300 [4]; [14],16 µg/mL
same,MIC,MRSA ATCC43300 [4]; [15],32 µg/mL
same,MIC,MRSA ATCC43300 [4]; [16],8 µg/mL
same,MIC,MRSA ATCC43300 [4]; [17],16 µg/mL
same,MIC,MSSA ATCC25923 [5]; [12],16 µg/mL
same,MIC,MSSA ATCC25923 [5]; [13],16 µg/mL
same,MIC,MSSA ATCC25923 [5]; [14],32 µg/mL
same,MIC,MSSA ATCC25923 [5]; [15],32 µg/mL
same,MIC,MSSA ATCC25923 [5]; [16],16 µg/mL
same,MIC,MSSA ATCC25923 [5]; [17],16 µg/mL
"O=C(O[C@@H]1Cc2c(O)cc(O)cc2O[C@@H]1c1cc(O)c(O)c(O)c1)c1cc(O)c(O)c(O)c1 [EGCG, Epigallocatechin gallate, reference compound]",fluorescence intensity ratio of SYTOX Green (control PBS = 1),MSSA ATCC25923 [1],smaller than 1
same,antagonistic action in combination with IPM,"MRSA ATCC43300 [2]; ATCC43300, IPM susceptible, EGCG at 16 to 64 μg/ml, EGCG derivative in the examined concentration range",weak antagonistic action
same,MIC of ABPC when used in combination with EGCG-C16 or EGCG,MRSA ATCC43300 [2]; [6],32 µg/mL
same,MIC of IPM when used in combination with EGCG-C16 or EGCG,MRSA ATCC43300 [2]; [6],0.016 µg/mL
same,MIC of ABPC when used in combination with EGCG-C16 or EGCG,MRSA ATCC43300 [2]; [9],8 µg/mL
same,MIC of IPM when used in combination with EGCG-C16 or EGCG,MRSA ATCC43300 [2]; [9],0.016 µg/mL
same,MIC of ABPC when used in combination with EGCG-C16 or EGCG,MRSA ATCC43300 [2]; [18],4 µg/mL
same,MIC of IPM when used in combination with EGCG-C16 or EGCG,MRSA ATCC43300 [2]; [18],0.031 µg/mL
same,MIC of ABPC when used in combination with EGCG-C16 or EGCG,MRSA ATCC43300 [2]; [19],4 µg/mL
same,MIC of IPM when used in combination with EGCG-C16 or EGCG,MRSA ATCC43300 [2]; [19],0.031 µg/mL
same,MIC of ABPC when used in combination with EGCG-C16 or EGCG,MRSA ATCC43300 [2]; [20],2 µg/mL
same,MIC of IPM when used in combination with EGCG-C16 or EGCG,MRSA ATCC43300 [2]; [20],0.031 µg/mL
same,MIC of ABPC when used in combination with EGCG-C16 or EGCG,MRSA ATCC43300 [2]; [21],1 µg/mL
same,MIC of IPM when used in combination with EGCG-C16 or EGCG,MRSA ATCC43300 [2]; [21],0.016 µg/mL
same,MIC of ABPC when used in combination with EGCG-C16 or EGCG,[3]; [10],64 µg/mL
same,MIC of ABPC when used in combination with EGCG-C16 or EGCG,[3]; [11],4 µg/mL
same,MIC of ABPC when used in combination with EGCG-C16 or EGCG,[3]; concentration of EGCG-C16 or EGCG 16 μg/ml,8 µg/mL
same,MIC of ABPC when used in combination with EGCG-C16 or EGCG,[3]; concentration of EGCG-C16 or EGCG 32 μg/ml,8 µg/mL
same,MIC of ABPC when used in combination with EGCG-C16 or EGCG,[3]; concentration of EGCG-C16 or EGCG 64 μg/ml,4 µg/mL
same,MIC of ABPC when used in combination with EGCG-C16 or EGCG,[3]; concentration of EGCG-C16 or EGCG 128 μg/ml,1 µg/mL
same,MIC,MRSA ATCC43300 [4]; [13],> 64 µg/mL
same,MIC,MRSA ATCC43300 [4]; [15],> 64 µg/mL
same,MIC,MRSA ATCC43300 [4]; [17],> 64 µg/mL
same,MIC,MSSA ATCC25923 [5]; [13],> 64 µg/mL
same,MIC,MSSA ATCC25923 [5]; [15],> 64 µg/mL
same,MIC,MSSA ATCC25923 [5]; [17],> 64 µg/mL
